Test results from paper PMC5131310, “Discovery of piperonal-converting oxidase involved in the metabolism of a botanical aromatic aldehyde” (Scientific Reports, 2016).

Target: T1, piperonal-converting enzyme (PceSML), FAD site on PceM (Burkholderia sp. CT39-3, UniProt A0A1L7N251)
T1 construct: same recombinant complex as P1 (N-terminal His tag on PceS, host Burkholderia sp. CT39-3); with Piperonal-converting enzyme large subunit (PceL); Piperonal-converting enzyme small subunit (PceS)
T1 sequence (A0A1L7N251 1-334): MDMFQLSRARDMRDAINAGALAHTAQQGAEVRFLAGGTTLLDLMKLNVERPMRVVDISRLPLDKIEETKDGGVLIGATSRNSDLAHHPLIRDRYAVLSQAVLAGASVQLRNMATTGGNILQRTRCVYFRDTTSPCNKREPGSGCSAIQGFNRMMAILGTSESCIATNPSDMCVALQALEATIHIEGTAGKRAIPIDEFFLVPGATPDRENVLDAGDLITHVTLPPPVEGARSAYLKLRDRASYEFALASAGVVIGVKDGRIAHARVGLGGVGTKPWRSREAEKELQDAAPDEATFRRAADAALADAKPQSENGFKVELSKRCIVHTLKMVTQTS
T1 sequence (A0A1L7N257 1-740 partner): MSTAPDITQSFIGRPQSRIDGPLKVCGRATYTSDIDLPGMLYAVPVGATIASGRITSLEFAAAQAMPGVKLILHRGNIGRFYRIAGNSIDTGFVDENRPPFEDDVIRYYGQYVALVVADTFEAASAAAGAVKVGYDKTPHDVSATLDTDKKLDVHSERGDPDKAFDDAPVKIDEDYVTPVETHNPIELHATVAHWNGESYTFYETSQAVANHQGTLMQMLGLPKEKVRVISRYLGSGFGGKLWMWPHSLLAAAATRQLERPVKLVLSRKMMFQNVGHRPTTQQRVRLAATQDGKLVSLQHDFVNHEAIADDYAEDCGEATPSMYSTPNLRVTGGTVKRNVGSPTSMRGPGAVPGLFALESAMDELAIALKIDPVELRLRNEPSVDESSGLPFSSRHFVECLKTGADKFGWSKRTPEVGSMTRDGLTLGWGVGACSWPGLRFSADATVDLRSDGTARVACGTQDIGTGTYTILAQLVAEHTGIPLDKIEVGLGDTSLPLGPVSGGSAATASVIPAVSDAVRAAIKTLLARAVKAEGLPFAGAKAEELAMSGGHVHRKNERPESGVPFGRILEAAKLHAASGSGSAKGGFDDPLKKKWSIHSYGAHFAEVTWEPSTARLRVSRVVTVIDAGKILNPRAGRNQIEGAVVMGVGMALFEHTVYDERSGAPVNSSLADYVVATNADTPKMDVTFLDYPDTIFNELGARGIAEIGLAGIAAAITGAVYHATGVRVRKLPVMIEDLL
T1 sequence (A0A1L7N258 1-185 partner): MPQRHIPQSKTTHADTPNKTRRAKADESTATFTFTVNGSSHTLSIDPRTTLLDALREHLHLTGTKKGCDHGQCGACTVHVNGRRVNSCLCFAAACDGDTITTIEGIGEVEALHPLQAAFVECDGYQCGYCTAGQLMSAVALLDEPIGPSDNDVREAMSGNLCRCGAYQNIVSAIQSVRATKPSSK
Assay: HPLC of flavin released from purified enzyme by HClO4
Type: binding
Conditions: as-purified cofactor

Cc1cc2nc3c(=O)[nH]c(=O)nc-3n(C[C@H](O)[C@H](O)[C@H](O)COP(=O)(O)OP(=O)(O)OC[C@H]3O[C@@H](n4cnc5c(N)ncnc54)[C@H](O)[C@@H]3O)c2cc1C [FAD]
HPLC of flavin released from purified enzyme by HClO4: FAD was identified as the flavin cofactor (Fig. 3A)
